Target: T1, P2Y purinoceptor 14 (Homo sapiens, UniProt Q15391)
T1 sequence (Q15391 whole entry): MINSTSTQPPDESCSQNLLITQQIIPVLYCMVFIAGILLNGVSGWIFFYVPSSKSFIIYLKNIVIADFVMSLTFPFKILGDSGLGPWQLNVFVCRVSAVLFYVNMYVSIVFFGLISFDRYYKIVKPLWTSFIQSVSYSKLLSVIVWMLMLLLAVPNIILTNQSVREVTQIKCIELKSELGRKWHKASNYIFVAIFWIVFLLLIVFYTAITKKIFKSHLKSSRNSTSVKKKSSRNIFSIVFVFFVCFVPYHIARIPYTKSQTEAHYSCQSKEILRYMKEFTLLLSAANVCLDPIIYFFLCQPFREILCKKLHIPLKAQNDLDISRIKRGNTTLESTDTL
Assay: Agonist activity at human P2Y14 receptor expressed in COS7 cells assessed as stimulation of PLC
Type: functional, cell-based, COS-7

SMILES: O=C(O)[C@@H]1O[C@@H](OP(=O)(O)OP(=O)(O)OC[C@H]2O[C@@H](n3ccc(=O)[nH]c3=O)[C@H](O)[C@@H]2O)[C@@H](O)[C@H](O)[C@H]1O
- EC50: 370 nM

SMILES: CC(=O)N[C@@H]1[C@H](OP(=O)(O)OP(=O)(O)OC[C@H]2O[C@@H](n3ccc(=O)[nH]c3=O)[C@H](O)[C@@H]2O)O[C@@H](CO)[C@H](O)[C@H]1O
- EC50 (cos-7): 4380 nM
